Experimental data published in patent publication US12252475B2, “Crystal forms of immunomodulators” (Curis, Inc., priority 2017, dated 2025).
Converted amounts (≈) assume the structure as drawn. Where two headings read alike, the source gives them in different places.

Legend:
Type in all cases: physicochemical
[1] = Solubility in simulated gastric fluid and pH-adjusted water at room temperature; conditions: thermodynamic from solid
Text: The pH values of the aqueous solutions after the solubility test were 5.13 and 5.15, respectively.

[2] = Solution stability of Form A in water/organic solvent mixtures (HPLC purity); conditions: for HPLC purity, API (RRT 1.00): about 10 mg/mL; for chemical purity in solution: time 0, across water/organic solvent mixtures
Protocol: (§1) Purity analysis was performed on an Agilent HP1100 series system equipped with a diode array detector and using ChemStation software vB.04.03 using the method detailed below in Table 3.
Samples of formula (I) anhydrous crystalline Form A were stored as solutions in water mixed with acetonitrile, tetrahydrofuran, isopropyl alcohol, or ethanol at room temperature and 35° C. for 7-8 days. The sample concentration was about 10 mg/mL and was kept stirring.

[3] = Dynamic vapor sorption (DVS)
[4] = Equilibrium solubility in water; conditions: for Final Form / solubility at 6 h: Water; for Final Form: solids checked by XRPD; for solubility at 6 h: thermodynamic from solid, equilibrated 6 hrs, HPLC
Protocol: Equilibrium solubility of formula (I) anhydrous Form A was measured in the water at 20° C. and 30° C. All samples were equilibrated at temperature for 6 hrs, and the solubility of supernatant was measured by HPLC, while the solids were checked by XRPD. (See Table 10.)

[5] = Solid stability of anhydrous crystal Form A on storage (XRPD form, TGA, HPLC purity); conditions: for HPLC Purity (area %): solid
Protocol: as §1
Thermogravimetric analysis (TGA) data were collected using a TA Q500/Q5000 TGA from TA Instruments. Differential scanning calorimetry (DSC) was performed using a TA Q200/Q2000 DSC from TA Instruments.
About 40 mg of a sample of formula (I) Form A was kept at each corresponding condition for one month without significant changes. […] No significant effect of the shoulder peaks on form or HPLC purity was observed.
Samples of formula (I) anhydrous crystalline Form A were stored as solids at 25° C./60% RH, 30° C./˜56%, and 40° C./75% RH for the time periods listed below. The samples were prepared in duplicate with an offset of 2 weeks. Each replicate was stored in a different container.

[6] = Seed (after ground), 5° C., sealed

solubility ([1]; simulated gastric fluid (SGF), simulated gastric fluid, read-out: solubility in simulated gastric fluid (SGF)): > 114 mg/mL | solubility ([1]; water with pH adjusted by NaOH and HCl, aqueous buffer, pH 7.08 (pH 5.13 after test), read-out: solubility in water solution with pH adjusted by NaOH and HCl): 87.5 to 117 mg/mL (≈ 243 to 324 mM) | solubility ([1]; water with pH adjusted by NaOH and HCl, aqueous buffer, pH 9.14 (pH 5.15 after test), read-out: solubility in water solution with pH adjusted by NaOH and HCl): 83.5 to 111 mg/mL (≈ 232 to 309 mM) | HPLC purity, API (RRT 1.00) ([2]; 35° C., ACN/H2O (1:1, v/v), 0 h): 99.58% | HPLC purity, API (RRT 1.00) ([2]; 35° C., ACN/H2O (1:1, v/v), 4 h): 99.44% | HPLC purity, API (RRT 1.00) ([2]; 35° C., ACN/H2O (1:1, v/v), 24 h): 98.42% | HPLC purity, API (RRT 1.00) ([2]; 35° C., EtOH/H2O (1:1, v/v), 0 h): 99.58% | HPLC purity, API (RRT 1.00) ([2]; 35° C., EtOH/H2O (1:1, v/v), 4 h): 99.47% | HPLC purity, API (RRT 1.00) ([2]; 35° C., EtOH/H2O (1:1, v/v), 24 h): 99.11% | HPLC purity, API (RRT 1.00) ([2]; 35° C., IPA/H2O (1:2, v/v), 0 h): 99.57% | HPLC purity, API (RRT 1.00) ([2]; 35° C., IPA/H2O (1:2, v/v), 4 h): 99.35% | HPLC purity, API (RRT 1.00) ([2]; 35° C., IPA/H2O (1:2, v/v), 24 h): 99.21% | HPLC purity, API (RRT 1.00) ([2]; 35° C., THF/H2O (1:1, v/v), 0 h): 99.56% | HPLC purity, API (RRT 1.00) ([2]; 35° C., THF/H2O (1:1, v/v), 4 h): 99.37% | HPLC purity, API (RRT 1.00) ([2]; 35° C., THF/H2O (1:1, v/v), 24 h): 98.30% | chemical purity in solution ([2]; 35° C.): about 99.6% | HPLC purity, API (RRT 1.00) ([2]; RT, ACN/H2O (1:1, v/v), 0 h): 99.65% | HPLC purity, API (RRT 1.00) ([2]; RT, ACN/H2O (1:1, v/v), 4 h): 99.51% | HPLC purity, API (RRT 1.00) ([2]; RT, ACN/H2O (1:1, v/v), 24 h): 99.24% | HPLC purity, API (RRT 1.00) ([2]; RT, EtOH/H2O (1:1, v/v), 0 h): 99.58% | HPLC purity, API (RRT 1.00) ([2]; RT, EtOH/H2O (1:1, v/v), 4 h): 99.47% | HPLC purity, API (RRT 1.00) ([2]; RT, EtOH/H2O (1:1, v/v), 24 h): 99.11% | HPLC purity, API (RRT 1.00) ([2]; RT, IPA/H2O (1:2, v/v), 0 h): 99.59% | HPLC purity, API (RRT 1.00) ([2]; RT, IPA/H2O (1:2, v/v), 4 h): 99.52% | HPLC purity, API (RRT 1.00) ([2]; RT, IPA/H2O (1:2, v/v), 24 h): 99.21% | HPLC purity, API (RRT 1.00) ([2]; RT, THF/H2O (1:1, v/v), 0 h): 99.64% | HPLC purity, API (RRT 1.00) ([2]; RT, THF/H2O (1:1, v/v), 4 h): 99.47% | HPLC purity, API (RRT 1.00) ([2]; RT, THF/H2O (1:1, v/v), 24 h): 99.19% | chemical purity in solution ([2]; room temperature): about 99.6% | hygroscopicity ([3]; DVS, up to 80% RH): slightly hygroscopic | form change during DVS testing ([3]; XRPD before and after DVS, FIG. 11): No form change was observed | mass change in DVS ([3]; up to 80% RH): about 0.66% | Final Form ([4]; 20° C.): Form A | Final Form ([4]; 30° C.): Form A | form change during solubility testing ([4]; XRPD, FIG. 9): No form change was observed | solubility at 6 h ([4]; 20° C.): 125 mg/mL (≈ 347 mM) | solubility at 6 h ([4]; 30° C.): 137 mg/mL (≈ 381 mM) | Final Form ([5]; 25° C., 60% RH, 1 month): Form A | TGA (%) ([5]; 25° C., 60% RH, 1 month): 0.60% | Final Form ([5]; 25° C., 60% RH, 3 months): Form A | TGA (%) ([5]; 25° C., 60% RH, 3 months): 2.8% | Final Form ([5]; 40° C., 75% RH, 1 month): Form A | TGA (%) ([5]; 40° C., 75% RH, 1 month): 1.0% | Final Form ([5]; 40° C., 75% RH, 3 months): Form A | TGA (%) ([5]; 40° C., 75% RH, 3 months): 1.9% | Final Form ([5]; 60° C., sealed, 1 month): Form A | TGA (%) ([5]; 60° C., sealed, 1 month): 0.6% | Final Form ([5]; 60° C., sealed, 3 months): Form A | TGA (%) ([5]; 60° C., sealed, 3 months): 2.1% | Final Form ([5]; Initial): Form A | TGA (%) ([5]; Initial): 0.40% | Final Form [5, 6]: Form A | TGA (%) [5, 6]: 0.4% | solid form and particle morphology after storage ([5]; one month and three months at 25° C./60% RH, 40° C./75% RH, and 60° C.): remained unchanged | degradation (chemical purity of solid sample) after storage ([5]; solid sample of about 40 mg, storage for one month): no significant degradation was observed | HPLC Purity (area %) ([5]; 25° C., 60% RH, 1 month): 99.83 area % | HPLC Purity (area %) ([5]; 25° C., 60% RH, 3 months): 99.80 area % | HPLC Purity (area %) ([5]; 40° C., 75% RH, 1 month): 99.81 area % | HPLC Purity (area %) ([5]; 40° C., 75% RH, 3 months): 99.79 area % | HPLC Purity (area %) ([5]; 60° C., sealed, 1 month): 99.85 area % | HPLC Purity (area %) ([5]; 60° C., sealed, 3 months): 99.74 area % | HPLC Purity (area %) ([5]; Initial): 99.86 area %
SMILES: CC(O)[C@H](NC(=O)N[C@@H](CC(N)=O)c1nc([C@@H](N)CO)no1)C(=O)O (stereo in doubt) [Form A]
